Results: patent publication US20220041616A1, “SPIRO COMPOUND AND MEDICAL USES THEREOF” (The National Institutes of Pharmaceutical R&D Co., Ltd., priority 2018, published 2022)

Target: T1, Pyruvate Carboxylase (PC) (Bos taurus, UniProt Q29RK2)
T1 construct: purchased Sigma
T1 sequence (Q29RK2 21-1178): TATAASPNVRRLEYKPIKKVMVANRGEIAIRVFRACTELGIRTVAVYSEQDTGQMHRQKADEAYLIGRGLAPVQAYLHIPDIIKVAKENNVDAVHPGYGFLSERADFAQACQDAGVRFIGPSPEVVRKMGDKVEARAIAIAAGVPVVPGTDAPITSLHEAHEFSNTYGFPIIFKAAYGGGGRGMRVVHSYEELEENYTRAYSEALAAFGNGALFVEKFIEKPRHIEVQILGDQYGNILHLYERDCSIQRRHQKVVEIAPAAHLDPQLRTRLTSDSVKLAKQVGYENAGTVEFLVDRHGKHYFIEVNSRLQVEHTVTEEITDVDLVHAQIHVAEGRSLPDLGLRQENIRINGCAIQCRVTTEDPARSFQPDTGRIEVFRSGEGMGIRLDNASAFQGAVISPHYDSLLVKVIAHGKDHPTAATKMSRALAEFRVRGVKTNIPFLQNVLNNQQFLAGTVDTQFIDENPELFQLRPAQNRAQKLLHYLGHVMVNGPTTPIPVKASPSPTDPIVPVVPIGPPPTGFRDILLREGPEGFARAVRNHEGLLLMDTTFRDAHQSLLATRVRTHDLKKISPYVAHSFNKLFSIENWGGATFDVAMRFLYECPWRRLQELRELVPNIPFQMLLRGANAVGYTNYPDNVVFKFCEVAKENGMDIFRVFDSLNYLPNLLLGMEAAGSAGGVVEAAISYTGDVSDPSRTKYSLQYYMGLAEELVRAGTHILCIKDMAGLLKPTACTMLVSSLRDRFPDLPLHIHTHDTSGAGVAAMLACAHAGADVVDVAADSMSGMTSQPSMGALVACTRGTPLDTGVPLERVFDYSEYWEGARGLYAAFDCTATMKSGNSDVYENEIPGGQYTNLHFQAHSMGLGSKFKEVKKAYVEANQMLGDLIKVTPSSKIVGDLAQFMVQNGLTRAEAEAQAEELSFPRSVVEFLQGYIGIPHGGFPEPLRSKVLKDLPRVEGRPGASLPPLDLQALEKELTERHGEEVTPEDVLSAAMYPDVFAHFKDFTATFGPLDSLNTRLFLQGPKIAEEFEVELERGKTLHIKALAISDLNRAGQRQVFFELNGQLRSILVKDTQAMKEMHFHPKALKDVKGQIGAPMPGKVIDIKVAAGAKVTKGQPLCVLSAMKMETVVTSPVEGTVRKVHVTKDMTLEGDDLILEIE
Test: In vitro inhibition of pyruvate carboxylase (PC) activity, coupling method
Format: biochemical
Conditions: top concentration 50 μM
Description: The in vitro analysis of the inhibitory effect of the present compound on PC activity was carried out by a coupling method. The PC reaction product oxaloacetate and β-NADH undergo a redox reaction under the catalysis of malate dehydrogenase, generating malic acid and NAD^+. Accordingly, the inhibition ability of the compound on PC can be reflected by detecting the change of absorbance value at 340 nm.
b. 65.7 μL PC enzyme reaction buffer (201 mM triethanolamine, 7.5 mM magnesium sulfate, 0.18% bovine serum albumin) was added to each well of a 96-well dilution plate (249944, Nunc), and then 1 μL of the serially diluted compound to be tested in step a was added to each well.
c. 10 μL of compound (prepared in step b) was added to each well of a 384-well test plate (3702, Corning). The reaction system with ZnCl2 at a final concentration of 500 μM was used as positive control; the reaction system with no compound but DMSO at a final concentration of 0.5% was used as negative control.
d. 10 μL of PC enzyme (Sigma, 0.15 U/ml stock solution of PC enzyme dissolved in 0.15 mM Tris-HCl pH 7.4, 0.006 mM Mg(AcO)2, 0.15% glycerol, and 0.003 mM EDTA) was added to each well of the 384-well test plate (prepared in step c), centrifuged at 1000 rpm for 1 min, and incubated at room temperature for 15 min.
e. 10 μL of substrate mixture (1.5 mM sodium pyruvate, 1.5 mM ATP, 0.15 mM acetyl-CoA, 45 mM sodium bicarbonate, 0.69 mM NADH, 3 U/ml malate dehydrogenase, 201 mM triethanolamine, 7.5 mM magnesium sulfate, and 0.18% bovine serum albumin) was added to each well of the 384-well test plate (prepared in step d), and centrifuged at 1000 rpm for 1 min. The final concentrations of each component in the PC enzymatic reaction system: 0.05 U/ml pyruvate carboxylase, 0.5 mM sodium pyruvate, 0.5 mM ATP, 15 mM sodium bicarbonate, 0.23 mM β-NADH, 1 U/ml malic acid dehydrogenase, and 0.05 mM acetyl-CoA. Test compound concentrations: 50 μM, 16.667 μM, 5.556 μM, 1.852 μM, 0.617 μM, 0.206 μM, 0.0686 μM, 0.0229 μM, 0.00763 μM, 0.00254 μM, 0.000847 μM and 0.000282 μM. The final concentration of DMSO was 0.5% (v/v).
f. The absorbance at 340 nm was read by using EnVision 2104 plate reader (Perkin Elmer) with reading every 1 min for 40 min.
GraphPad Prism 6 software was used to perform a linear fit, and the concentration of each compound and the slope of the positive and negative controls were calculated. The inhibition percentage was calculated according to the following formula: 100×[1−(compound−average value of positive control)/(average value of negative control−average value of positive control)].
IC50 of the compound was obtained using GraphPad Prism 6 software according to the following nonlinear fitting formula:
Y=Bottom+(Top−Bottom)/(1+10^((Log IC50−X)×HillSlope)), […]

IC50, > 50 µM:
COc1ccccc1C(CN1C(=O)C2(CC(C(=O)O)C2)C(=O)c2c1sc(-c1ncco1)c2C)OC1CCOCC1 (mixture of isomers) [Compound 8, 7′-(2-(2-methoxyphenyl)-2-((tetrahydro-2H-pyran-4-yl)oxy)ethyl)-3′-methyl-2′-(oxazol-2-yl)-4′,6′-dioxo-6′,7′-dihydro-4′H-spiro[cyclobutane-1,5′-thieno[2,3-b]pyridine]-3-carboxylic Acid]
COc1ccccc1C(CN1C(=O)C2(CCC(C(=O)O)C2)C(=O)c2c1sc(-c1ncco1)c2C)OC1CCOCC1 (single isomer, unassigned) [Compound 5b, 7′-(2-(2-methoxyphenyl)-2-((tetrahydro-2H-pyran-4-yl)oxy)ethyl)-3′-methyl-2′-(oxazol-2-yl)-4′,6′-dioxo-6′,7′-dihydro-4′H-spiro[cyclopentane-1,5′-thieno[2,3-b]pyridine]-3-carboxylic Acid]
COc1ccccc1C(CN1C(=O)C2(CC(C(=O)O)C2)C(=O)c2c1sc(-c1ncco1)c2C)OC1CCOCC1 (single isomer, unassigned) [Compound 8d, 7′-(2-(2-methoxyphenyl)-2-((tetrahydro-2H-pyran-4-yl)oxy)ethyl)-3′-methyl-2′-(oxazol-2-yl)-4′,6′-dioxo-6′,7′-dihydro-4′H-spiro[cyclobutane-1,5′-thieno[2,3-b]pyridine]-3-carboxylic Acid]
COc1ccccc1[C@H](CN1c2sc(-c3ncco3)c(C)c2C(=O)[C@]2(C[C@H](C(=O)O)C2)C1=O)OC1CCOCC1 [Compound 8c, 7′-(2-(2-methoxyphenyl)-2-((tetrahydro-2H-pyran-4-yl)oxy)ethyl)-3′-methyl-2′-(oxazol-2-yl)-4′,6′-dioxo-6′,7′-dihydro-4′H-spiro[cyclobutane-1,5′-thieno[2,3-b]pyridine]-3-carboxylic Acid]
